Where two headings read alike, the source gives them in different places.
What was measured:
[1] = tested on: Hsp90 client proteins (c-Raf-1, Cdk4, Her2) and co-chaperone Hsp70; settings: literature (Banerji U. et al.); cited from earlier work
Hsp90α [2] = biological target: T1, Hsp90α (Homo sapiens, UniProt P07900); test: Human Hsp90α fluorescence polarization competition assay with Example 37 tracer; settings: displacement of 50 nM example 37 tracer, 125 nM Hsp90α, 1 h 30 min, 20° C.; read-out: Relative binding affinity values (IC50) obtained from FP measurements
T1 construct: purchased Stressgen Bioreagents SPP-776
Source text: The aim of this study was to determine the binding ability of compounds of the invention to the N-terminal ATP binding site of Hsp90. For that purpose competition assays with fluorescently labeled Hsp90 binders were used (compounds of examples 37 and 41).
Compounds of examples 37 and 41 are structurally based on 8-(6-Iodo-benzo[1,3]dioxol-5-ylsulfanyl)-9-(3-isopropylamino-propyl)-9H-purin-6-ylamine, a known binder of the N-terminal ATP binding site of Hsp90 which has the ability of inhibiting the Hsp90 function (cf. Chiosis G. et al. “Identification of Potent Water Soluble Purine-Scaffold Inhibitors of the Heat Shock Protein 90”, J. Med. Chem., 2006, vol. 49, no. 1, p. 381). Compounds 37 and 41 keep the essential structural features of the known binder (which means that said compounds are able to bind to the ATP binding site) and incorporate a fluorescent probe which allows the detection of the binding by fluorescence polarization.
When the binders of examples 37 and 41 are used in the competition assay, in a first step said binders are allowed to interact with the N-terminal ATP binding site of Hsp90. Then the compounds of the invention are added and it is determined if they are able to bind to the N-terminal ATP binding site (which will imply that the binders of examples 37 and 41 have been replaced from the N-terminal ATP binding site). If after performing the assay, the binding between the tested compound of the invention and the Hsp90 is observed, this will be indicative that the compound of the invention has been bound to the ATP binding site of Hsp90 and, therefore, can inhibit the Hsp90.
(§1) Once compounds of examples 37 and 41 were synthesized as reported above, they were dissolved at 238 μM and 1 mM in DMSO respectively (Sigma-Aldrich, cat. No. 154938). Hsp90α was purchased from Stressgen Bioreagents (cat. No. SPP-776; Victoria, Canada). The assay buffer contained 100 mM Tris·HCl, pH 7.4, 20 mM KCl, 6 mM MgCl2. Before each use 5 μg/mL bovine serum albumin (BSA, Pierce, Rockford (Ill.), cat No. 23209), 0.25 mM TCEP (Sigma, cat No. 64706) and 0.01% NP40 (Nonidet P40 Substitute, Fluka, cat No. 74385) were freshly added (cf. Howes et al., “A fluorescence polarization assay for inhibitors of Hsp90”, Analytical Biochemistry, 2006, vol. 350, p. 202-213; Kim et al., “Development of a fluorescence polarization assay for the molecular chaperone Hsp90”, J. Biomol. Screen., 2004, vol. 9 (5)).
Fluorescence polarization measurements were performed on an Infinite F200 (Tecan, Austria). Measurements were taken in black 96-well microplates (Corning Costar No. 3650) in which both the excitation and the emission occurred from the top of the wells. In the Infinite F200, a xenon arc lamp provides excitation light that passes through a 485 nm (20-nm bandwidth) excitation filter and then a polarizer filter. A beam splitter filter directs the polarized excitation light into the well, and emitted fluorescence transmits back through the same beam-splitter filter, through a polarizer filter, and then through a 535 nm (25-nm bandwidth) emission filter for detection (Kim et al., supra). The read time per well was 20 μs, and the number of reads per well was 25.
Compounds were assayed over a three-fold dilution series in a 96-well plate format to determine IC50 values. The serial dilution was performed in a separate 96-well plate (Thermowell 96 well PCR plate, Non-Treated Polypropylene, Corning Costar No. 6551) at 50 times final assay concentration in DMSO. (Howes et al, supra). 2 μl of compound was transferred to a black 96-well plate (Corning Costar No. 3650) and 98 μL of reaction solution (100 mM Tris·HCl, pH 7.4, 20 mM KCl, 6 mM MgCl2, 5 μg/mL bovine serum albumin (BSA), 0.25 mM TCEP, 0.01% NP40, 50 nM the compound of example 37, 125 nM Hsp90α) was added per well. The plate was allowed to equilibrate for 1 h 30 min on a slow moving shaker at 20° C. in the dark. […]

HCT-116 = test: Cell growth inhibition by AlamarBlue method, HCT-116; type: cell-based; settings: Homo sapiens; HCT-116, 72 hours; read-out: Cell growth inhibition values (EC50) obtained with AlamarBlue method
Procedure: (§2) The human colon cancer cell line HCT-116 and the human breast cell lines MCF-7 and SKBr3 were from the American Type Culture Collection (ATCC; CCL-247, HTB-22 and HTB-30, respectively).
(§3) The HCT-116 and SKBr3 cell lines were maintained in DMEM GlutaMAX (Invitrogen) supplemented with 10% fetal calf serum and the MCF-7 cell line was maintained in RPMI1640 GlutaMAX (Invitrogen) containing 1 mM sodium pyruvate and 10% fetal calf serum. Cells were grown in a humidified incubator at 37° C. in 5% CO2
(§4) Cells were plated in 96-well plates (Costar, 3596) at a density of 6000 cells/well in 50 μL medium 24 h before addition of the compounds. Compounds were then added in 8 concentrations, each in triplicate (dilution series of 1 to 3). To do so, a compound-dilution plate at 200× the screening concentrations was prepared in DMSO 100% (Sigma, 154938). Then, 1.7 μL of the 200× diluted compounds were transferred to a new plate and 170 μL of media were added and mixed with the pipette (plate at 2×). Columns 11 and 12 of this plate (controls) were filled with 1% DMSO in cell media (i.e. 1.7 μL DMSO and 170 μL cell media). Finally, 50 μL of this intermediate plate at 2× were transferred to the plate containing the seeded cells and slowly shaken manually. Cells were grown as described above. AlamarBlue viability assay (Biosource, Invitrogen, DAL1100) was performed 72 hours later following manufacturer's protocol. In brief, AlamarBlue diluted in media was added to cells to have a 5% solution (a 2× solution was prepared in media and 100 μL of this solution were transferred to each well, i.e. final volume of 200 μL). Cells were incubated at 37° C., 3 hours and at room temperature for an additional 30 min. Cells with no compound and, cells with no compound and lysed with triton X-100 (30 μL/well added 10 min before treatment with AlamarBlue) were used as controls (6 replicates of each). Fluorescence was monitored at 530 nm excitation and 590 nm emission wavelengths. Results were quantified using ELx800 Universal Microplate Reader (Bio-Tek Instruments, Inc.). EC50 were calculated as the dose of compound required to inhibit cell growth by 50%.

MCF-7 = test: Cell growth inhibition by AlamarBlue method, MCF-7; type: cell-based, human; settings: MCF-7, 72 hours, read-out: Cell growth inhibition values (EC50) obtained with AlamarBlue method
Procedure: as §2, §3, §4

Hsp90α [3] = biological target: T1, Hsp90α; test: Fluorescence polarization binding isotherms of tracers with Hsp90α; settings: fitted to a 1:1 binding model; read-out: dissociation constant (KD) tracer / Hsp90α
Procedure: as §1
Fluorescence polarization measurements were performed on an Infinite F200 (Tecan, Austria). […] A beam splitter filter directs the polarized excitation light into the well, and emitted fluorescence transmits back through the same beam-splitter filter, through a polarizer filter, and then through a 535 nm (25-nm bandwidth) emission filter for detection (Kim et al., supra). The read time per well was 20 μs, and the number of reads per well was 25. […]

SKBr3 = test: Cell growth inhibition by AlamarBlue method, SKBr3; type: cell-based; settings: Homo sapiens, SK-BR-3; SKBr3, 72 hours; read-out: Cell growth inhibition values (EC50) obtained with AlamarBlue method
Procedure: as §2, §3, §4

For `C=CCNC1=C2C[C@@H](C)C[C@H](OC)[C@H](O)[C@@H](C)/C=C(\C)[C@H](OC(N)=O)[C@@H](OC)/C=C\C=C(/C)C(=O)NC(=CC1=O)C2=O` [Example 17AAG, 17-Allylamino, 17-Demethoxygeldanamycin], which “effect of Hsp90 inhibitor on client proteins and Hsp70 as described in the literature” value [1] is on record?
The value was “promotes degradation of its client proteins and overexpression of the co-chaperone Hsp70”.

With `CC(C)NCCCn1c(Sc2cc3c(cc2I)OCO3)nc(C(N)=O)c1N` [Example 33, 5-amino-2-(6-iodo-benzo[1,3]dioxol-5-ylsulfanyl)-1-(3-isopropylamino-propyl)-1H-imidazole-4-carboxamide] as the molecule, how does the IC50 (Hsp90α [2]) read?
The IC50 was 0.5 µM.

And the EC50 (HCT-116)?
The EC50 was 3 µM.

What about the EC50 (MCF-7; Homo sapiens, MCF7) of the same molecule?
The EC50 was 3 µM.

With `Cc1cc(C)n2c1C=C1C=CC(CCC(=O)NCCNC(=O)CCCCCn3c(Sc4cc5c(cc4I)OCO5)nc4c(N)ncnc43)=[N+]1[B-]2(F)F` [Example 37, 6-[6-amino-8-(6-iodo-benzol[1,3]dioxol-5-ylsulfanyl)-purin-9-yl]-hexanoic acid 4,4-difluoro-5,7-dimethyl-4-bora-3a,4a-diaza-s-indacene-3-propionylethylenediamide] as the molecule, how does the Kd (Hsp90α [3]) read?
The Kd was 0.06 µM.

For `Nc1ncnc2c1nc(Sc1cc3c(cc1I)OCO3)n2CCCCNC(=O)CCCCCNc1ccc([N+](=O)[O-])c2nonc12` [Example 41, 6-(7-nitro-benzo[1,2,5]oxadiazol-4-ylamino)-hexanoic acid {-4-[6-amino-8-(6-iodo-benzol[1,3]dioxol-5-ylsulfanyl)-purin-9-yl]-butyl}-amide], which Kd (Hsp90α [3]) is on record?
The Kd was 0.021 µM.

With `CC(C)N(CCCn1c(Cc2cc3c(cc2I)OCO3)nc(C(N)=O)c1N)C(=O)OC(C)(C)C` [Example 44, {3-[5-amino-4-carbamoyl-2-(6-iodo-benzol[1,3]dioxol-5-ylmethyl)-imidazol-1-yl]-propyl}-isopropyl-carbamic acid tert-butyl ester] as the molecule, how does the IC50 (Hsp90α [2]) read?
The IC50 was 3.2 µM.

And the EC50 (MCF-7)?
Its EC50 is 18.8 µM.

For `CCCCn1c(Sc2nc3cccc(Cl)c3s2)nc(C(N)=O)c1N` [Example 48, 5-amino-1-butyl-2-(7-chloro-benzothiazol-2-ylsulfanyl)-1H-imidazole-4-carboxamide], which IC50 (Hsp90α [2]) is on record?
The IC50 was 2.76 µM.

What about the EC50 (HCT-116) of the same molecule?
Its EC50 is 33 µM.

What about the EC50 (MCF-7; Homo sapiens, MCF7) of the same molecule?
The EC50 was 43 µM.

Which results are given for `CSc1cc2c(cc1Sc1nc(C(N)=O)c(N)n1C)CCO2` [Example 99, 5-amino-2-{[6-(methylthio)-2,3-dihydro-1-benzofuran-5-yl]thio}-methyl-1H-imidazole-4-carboxamide]?
IC50 (Hsp90α [2]): 13 µM; EC50 (HCT-116): 85 µM; EC50 (SKBr3): 55 µM
